Reference: article PMC6567057, “Pharmacokinetic, metabolic stability, plasma protein binding and CYP450s inhibition/induction assessment studies of N-(2-pyridylmethyl)-2-hydroxiymethyl-1-pyrrolidinyl-4-(3-chloro-4-methoxy-benzylamino)-5-pyrimidine-carboxamide as potential type 5 phosphodiesterase inhibitors” (Animal Cells and Systems, 2019)

Tests used:
[1] = tested on: human plasma proteins; assay: Plasma protein binding by equilibrium dialysis (human); format: in vitro ADME; conditions: human plasma, equilibrium dialysis, n = 3
Protocol: (§1) The phosphate buffer (100 mM) and sodium hydroxide solution (1.0 M) were prepared in deionized water. […] PPB was determined by equilibrium dialysis method. An aliquot (150 μL) of NHPPC spiked plasma and phosphate buffer (pH 7.4) was added into the donor side and the receiver side of each designated well. The plate was covered with adhesive sealing film to prevent evaporation and placed in a water-bath shaker kept at 37°C for 6 h with a rate of 50 rpm. […] At the end of 6 h, aliquots were taken from each side of each well (n = 3) and kept in a −20°C freezer prior to analysis. The stability, device recovery and PPB were calculated using the following equations: Remaining at 6 h (%)=C6h/C0h×100%, Device recovery (%)=CDonor+CReceiver/C6h×100%, PPB (%)=CDonor−CReceiver/CDonor×100%.

[2] = tested on: rat plasma proteins; assay: Plasma protein binding by equilibrium dialysis (rat); format: in vitro ADME, Sprague–Dawley rat; conditions: rat plasma, equilibrium dialysis, n = 3
Protocol: as §1

[3] = tested on: dog plasma proteins; assay: Plasma protein binding by equilibrium dialysis (dog); format: in vitro ADME, Beagle dog; conditions: dog plasma, equilibrium dialysis, n = 3
Protocol: as §1

CC(=O)CC(c1ccccc1)c1c(O)c2ccccc2oc1=O (stereo not drawn) [Warf, reference compound]
Mean device recovery % [1]: 107.0 ± 0.25% | Mean device recovery % [2]: 107.9 ± 0.03% | Mean device recovery % [3]: 100.7 ± 0.49%
